# According to patent US8501166B2, “Pyrimidinyl indole compounds” (Hutchison Medipharma Limited, priority 2010, dated 2013):
# What was measured:
# [1] = test system: DNBS-induced colitis; test: DNBS-induced colitis in rat; assay type: in vivo, Wistar rats; details: 3, 10, 30 and 60 mg/kg oral, six days
# Protocol: A compound is tested in DNBS-induced colitis model in rat essentially as described in a method reported in the literature (Gut. 2002; 50(3):440-1). Briefly, Wistar rats are used in the experiments. Following the induction of distal colitis by intra-colonic instillation of DNBS, the test compound at doses of 3, 10, 30, 60 mg/kg (bid) is administered to rats orally for six days. The negative control group is treated with the vehicle alone without DNBS instillation. The vehicle-control group rats are DNBS-induced and treated with vehicle. In the positive control group, sulfasalazine is orally administered to the rats at 300 mg/kg daily for six consecutive days. Animals are euthanized 24 h after the final treatment. Colon-to-body weight ratio and colonic damage scores are calculated for each animal. Vehicle treatment of rats results in a progressive worsening of clinical symptoms, achieving a maximum colonic damage score of 6.1±0.6 and colon-to-body weight ratio-colon length of 0.96±0.10 on day 7 after instillation. In this DNBS-induced inflammatory bowel disease model, rats treated with Example 2 at doses of 3, 10, 30 and 60 mg/kg show a marked reduction in colonic damage scores, colon-to-body weight-to-colon length ratio with more than 30% reduction.
# [2] = test system: SKOV-3x-FF-luci human ovarian cancer xenograft; test: Anti-tumor effects in SKOV-3x-FF-luci xenograft (alternate protocol, 23 days); assay type: in vivo, Balb/c nu/nu mice
# Protocol: Alternately, the test compound is evaluated for its anti-tumor effects on tumor growth of human ovarian cancer SKOV-3x-FF-luci in nude mice. SKOV-3x-FF-luci cell line (ATCC) is cultured in McCoy's 5a medium containing 10% fetal calf serum. Female Balb/c nu/nu mice (6-7 weeks old) are injected peritoneally with 0.2 mL of cell suspension containing 2×10^6 cells. Mice are randomized and divided into four groups six days after cell implantation. The test compound at doses of 30 and 100 mg/kg is orally administered to animals twice a day for 23 consecutive days. Mice in the control group are administered the vehicle (10% Acacia), twice a day. Mice in the positive control group are injected with Cisplatin (4 mg/kg) via the tail vein once a week. At the end of the treatment, all mice are euthanized with CO2 and tumor nodules in the peritoneal cavity, diaphragmatic muscle, mesenterium, liver, spleen, and ovaries are dissected, harvested, and combined for the measurement of weight. Inhibition rate: IR %=(tumor weight in control−tumor weight in drug treated)/tumor weight in control×100%).
# [3] = test system: collagen induced arthritis; test: Collagen induced arthritis (CIA) model in mice; assay type: in vivo, DBA/1 mice
# Protocol: Previous studies have shown that small molecular inhibitors of IKKβ are efficacious in a mouse CIA model (Podolin, P L et al, J. Pharm. Exp. Ther., 2005, 312: 373-381). In addition, mice with T cells expressing a dominant—negative form of IkBa are protected from developing CIA (Seetharaman R. et al. J. Immunol. 1999: 163, 1577-1583). […] Therefore a compound of the present invention is tested in the collagen induced arthritis (CIA) model in mice essentially as described in a method reported in the literature (Rosloniec E F, Cremer M, Kang A, Myers L K. Current Protocols in Immunology. 1996, 15.5.1-15.5.24).
# Briefly, DBA/1 mice are immunized intradermally with chicken collagen II (200 μg/mouse) emulsified with Freund's complete adjuvant (CFA, Sigma, US) on day 0 and day 21 to elicit arthritis. The severity of arthritis is assessed using a visual scoring system, in which each paw is graded from 0 to 4 (0=normal, 4=severe swelling of the entire paw). The hind joint thicknesses are measured with a micrometer. The testing compound is orally administered for either prophylactic or therapeutic purposes. For the prophylactic study, the testing compound is orally administered twice daily from day 1 to day 42. For the therapeutic study, the drug treatment is started after the onset of arthritis, which usually occurs within one week of 2nd immunization. Mice are treated with the drug for 21 days. […]
# [4] = test system: LPS-induced plasma IL-1β production; test: LPS-induced plasma cytokine production in mouse, IL-1β; assay type: in vivo, Balb/c mice; details: even at the dose of 100 mg/kg
# Protocol: Alternately, the compound is screened for its ability to inhibit the LPS-induced cytokine production in rat plasma according to the method reported in the literature (Ziegelbauer K, Gantner F, Lukacs N W, et al. Br J. Pharmacol. 2005,145(2):178-92). Briefly, Lewis rats (male, body weight 140 g-180 g) are used in the experiments. Animals (8/group) are given 1 to 100 mg/kg of the testing compound (suspension in 35% solutol & 60% PEG400 & 5% PG) or vehicle by oral gavage at 1 h prior to intraperitoneal administration of LPS 0.4 mg/kg. Ninety minutes after the intraperitoneal administration of LPS, blood is collected in heparin anticoagulated tubes to measure TNFα using R&D System ELISA Kit based on the general Kit protocols. The plasma sample is diluted 100 fold with the dilution buffer and 50 μL of diluted sample is used in each measurement. The plate is read on a SPECTRAMAX® M2e Plus Plate Reader and TNFα levels are analyzed based on the standard curve. The drug levels in plasma are measured with LC-MS-MS. […] Alternately, the compound is screened for its ability to inhibit the LPS-induced cytokine production in mouse plasma. Balb/c mice (female, body weight 18-20 g) are used in the experiments. […] The plate is read on a SPECTRMAX® M2e Plus Plate Reader and the data is analyzed using a standard curve.
structure (smiles),measurement,setting,value
"Cl.O=C(NC1CC1)c1cccc2[nH]c(-c3nc(N[C@@H]4CCC[C@H]4O)ncc3Cl)cc12 [Example 2, 2-{5-Chloro-2-[(1R,2R)-2-hydroxycyclopentylamino]pyrimidin-4-yl}-N-cyclopropyl-1H-indole-4-carboxamide hydrochloride]","reduction in colonic damage scores, colon-to-body weight-to-colon length ratio",[1],more than 30%
same,tumor inhibition rate (IR),[2]; 30 mg/kg oral twice a day,59.3%
same,tumor inhibition rate (IR),[2]; 100 mg/kg oral twice a day,93.9%
same,joint swelling and arthritis scores,[3]; 10 and 30 mg/kg bid (20 and 60 mg/kg/day),Statistically significant inhibition of joint swelling and reduction of arthritis scores
same,ED50,"[3]; 1008 h, mouse CIA, oral bid for 42 days, read-out: ED50, joint swelling and arthritis scores",4.3 mg/kg
same,effect on IL-1β production,[4],no effect was observed
